Assay results: publication PMC10648875 (Antimicrobial Agents and Chemotherapy, 2023)
Converted amounts (≈) assume the structure as drawn. Like-named read-outs stand apart in the source and are kept apart here.

Legend:
[1] = system: ESBL-producing Enterobacterales; experiment: organism not typed; format: cell-based; settings: for MIC50: read-out: MIC50; for MIC90: read-out: MIC90
[2] = system: PAM4884 producing ADC-181; experiment: MIC, engineered isogenic strain; format: cell-based, P. aeruginosa; settings: ADC-181, class C; BLIs at fixed 4 µg/mL
PAM4889 producing IMP-26 = experiment: MIC, engineered isogenic strain; format: cell-based, P. aeruginosa; settings: IMP-26, class B; BLIs at fixed 4 µg/mL
PAM4135 producing KPC-2 = experiment: MIC, engineered isogenic strain; format: cell-based, P. aeruginosa; settings: KPC-2, class A; BLIs at fixed 4 µg/mL
PAM4689 producing KPC-3 = experiment: MIC, engineered isogenic strain; format: cell-based, P. aeruginosa; settings: KPC-3, class A; BLIs at fixed 4 µg/mL
PAM4885 producing SPM-1 = experiment: MIC, engineered isogenic strain; format: cell-based, P. aeruginosa; settings: SPM-1, class B; BLIs at fixed 4 µg/mL
[3] = system: carbapenem-resistant strains of Enterobacterales with cefepime-taniborbactam MIC >8 µg/mL; experiment: MIC testing of CRE with reduced cefepime-taniborbactam susceptibility (Table 6, Fig 1); format: cell-based
Method: Isolates were tested for antimicrobial susceptibility using the broth microdilution methodology per CLSI M07 (2018) guidelines ([40]). JMI Laboratories produced frozen-form 96-well panels with cation-adjusted Mueller-Hinton broth as the testing medium. Current CLSI quality assurance practices were followed when performing the susceptibility tests. MIC values were validated by concurrently testing the following CLSI-recommended ([27]) QC reference strains: E. coli NCTC 13353 (CTX-M-15), Klebsiella pneumoniae ATCC BAA-2814 (KPC-3), Klebsiella pneumoniae ATCC BAA-1705 (KPC-2), and K. pneumoniae ATCC 700603 (SHV-18). The inoculum density during susceptibility testing was monitored by bacterial colony counts. Where applicable, QC ranges for tested reference strains were those approved or published by the CLSI ([27]).

PAM4876 producing OXA-72 = experiment: MIC, engineered isogenic strain; format: cell-based, P. aeruginosa; settings: OXA-72, class D; BLIs at fixed 4 µg/mL

SMILES | MIC50 [1] [µg/mL] | MIC90 [1] [µg/mL] | MIC [2] [µg/mL] | MIC (PAM4889 producing IMP-26) [µg/mL] | MIC (PAM4135 producing KPC-2) [µg/mL] | MIC (PAM4689 producing KPC-3) [µg/mL] | MIC (PAM4885 producing SPM-1) [µg/mL] | MIC50 [3] [µg/mL] | MIC90 [3] [µg/mL] | MIC50 ([3]; All MBL (N = 129)) [µg/mL] | MIC90 ([3]; All MBL (N = 129)) [µg/mL] | MIC50 ([3]; IMP (N = 20)) [µg/mL] | MIC90 ([3]; IMP (N = 20)) [µg/mL] | MIC50 ([3]; KPC and OXA-48 (N = 12)) [µg/mL] | MIC90 ([3]; KPC and OXA-48 (N = 12)) [µg/mL] | MIC50 ([3]; MBL negative (N = 34)) [µg/mL] | MIC90 ([3]; MBL negative (N = 34)) [µg/mL] | MIC50 ([3]; NDN (N = 101)) [µg/mL] | MIC90 ([3]; NDN (N = 101)) [µg/mL] | MIC50 ([3]; Non-CP CRE (N = 22)) [µg/mL] | other results
C[C@@H](O)[C@H]1C(=O)N2C(C(=O)O)=C(S[C@@H]3CN[C@H](C(=O)N(C)C)C3)[C@H](C)[C@H]12 [MEM, meropenem] | ≤ 0.03 | 0.06 (≈ 0.156 µM) | 0.125 (≈ 0.326 µM) | 8 (≈ 20.9 µM) | 32 (≈ 83.4 µM) | 64 (≈ 167 µM) | 32 (≈ 83.4 µM) | > 64 | > 64 | > 64 | > 64 | 16 | 64 | 32 | > 64 | 16 | > 64 | > 64 | > 64 | 16 | MIC90 ([3]; Non-CP CRE (N = 22)): 32 µg/mL; MIC50 ([3]; VIM (N = 8)): > 64 µg/mL; MIC (PAM4876 producing OXA-72): 2 µg/mL (≈ 5.22 µM)
CO/N=C(\C(=O)N[C@@H]1C(=O)N2C(C(=O)[O-])=C(C[N+]3(C)CCCC3)CS[C@H]12)c1csc(N)n1 [FEP, cefepime] | 16 (≈ 33.3 µM) | > 64 | 0.5 (≈ 1.04 µM) | 64 (≈ 133 µM) | > 64 | > 64 | > 64 | 64 | > 64 | 64 | > 64 | 32 | > 64 | 64 | > 64 | 64 | > 64 | 64 | > 64 | 64 | MIC90 ([3]; Non-CP CRE (N = 22)): > 64 µg/mL; MIC50 ([3]; VIM (N = 8)): > 64 µg/mL; MIC (PAM4876 producing OXA-72): 2 µg/mL (≈ 4.16 µM)
